Reference: the NIST ThermoML archive (doi:10.1021/je9000679)
Numbers after ± are expanded uncertainties.

Settings: for surface tension liquid-gas: Maximal bubble pressure; for mass density: 101.33 kPa, Liquid

Compound `CCCCCC[n+]1ccccc1.[O]=[Re](=[O])(=[O])[O-]` [1-hexylpyridinium perrhenate] has a surface tension liquid-gas (293.15 K) of 34.4 ± 0.5 mN/m, a mass density (293.15 K) of 1794.6 ± 2.6 kg/m3 and a surface tension liquid-gas (298.15 K) of 34 ± 0.5 mN/m. It also gave a mass density (298.15 K) of 1787 ± 2.6 kg/m3, a surface tension liquid-gas (303.15 K) of 33.6 ± 0.4 mN/m and a mass density (303.15 K) of 1779 ± 2.6 kg/m3. The surface tension liquid-gas (308.15 K) was 33.2 ± 0.4 mN/m, the mass density (308.15 K) was 1771.3 ± 2.5 kg/m3 and the surface tension liquid-gas (313.15 K) was 33 ± 0.4 mN/m. It also gave a mass density (313.15 K) of 1765 ± 2.5 kg/m3, a surface tension liquid-gas (318.15 K) of 32.6 ± 0.4 mN/m and a mass density (318.15 K) of 1759 ± 2.5 kg/m3. It also gave a surface tension liquid-gas (323.15 K) of 32.3 ± 0.4 mN/m, a mass density (323.15 K) of 1751.4 ± 2.5 kg/m3 and a surface tension liquid-gas (328.15 K) of 32 ± 0.4 mN/m. It also gave a mass density (328.15 K) of 1743.9 ± 2.5 kg/m3, a surface tension liquid-gas (333.15 K) of 31.8 ± 0.4 mN/m and a mass density (333.15 K) of 1738 ± 2.4 kg/m3. For the same compound, the surface tension liquid-gas (338.15 K) was 31.5 ± 0.4 mN/m, the mass density (338.15 K) was 1732.3 ± 2.4 kg/m3 and the surface tension liquid-gas (343.15 K) was 31.1 ± 0.4 mN/m. For the same compound, the mass density (343.15 K) was 1726.9 ± 2.4 kg/m3.
